From ChEMBL document CHEMBL1140592, “Identification of novel, selective and potent Chk2 inhibitors” (Bioorg Med Chem Lett, 2007)

Biological target: Serine/threonine-protein kinase Chk2 (Homo sapiens, UniProt O96017)
Assay: Inhibition of Chk2 kinase

Serine/threonine-protein kinase Chk2, sequence (O96017 whole entry): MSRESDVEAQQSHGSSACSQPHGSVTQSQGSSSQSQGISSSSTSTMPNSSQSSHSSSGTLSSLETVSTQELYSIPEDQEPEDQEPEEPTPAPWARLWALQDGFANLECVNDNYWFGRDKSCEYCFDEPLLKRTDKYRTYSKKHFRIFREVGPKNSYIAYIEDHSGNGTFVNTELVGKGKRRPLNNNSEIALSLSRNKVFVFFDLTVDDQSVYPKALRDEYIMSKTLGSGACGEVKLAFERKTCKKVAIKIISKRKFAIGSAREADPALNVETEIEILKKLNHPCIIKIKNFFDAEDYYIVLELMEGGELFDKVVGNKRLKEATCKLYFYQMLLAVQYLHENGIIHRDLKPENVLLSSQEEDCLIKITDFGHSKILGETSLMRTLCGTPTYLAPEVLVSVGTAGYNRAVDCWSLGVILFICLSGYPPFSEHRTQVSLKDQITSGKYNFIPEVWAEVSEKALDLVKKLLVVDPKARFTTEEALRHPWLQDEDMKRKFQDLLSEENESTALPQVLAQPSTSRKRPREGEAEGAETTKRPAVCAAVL

Compound	IC50
N=C(NCC1CCCCC1)c1c(O)nsc1Nc1ccc(Sc2ccccc2)cc1	19 µM
N=C(NCC1CCCCC1)c1c(O)nsc1Nc1ccc(C(=O)c2ccccc2)cc1	5 µM
CC(C)NC(=N)c1c(O)nsc1Nc1ccc(S(=O)(=O)c2ccccc2)cc1	> 40 µM
N=C(NCC1CCCCC1)c1c(O)nsc1Nc1ccc(Cc2ccccc2)cc1	37 µM
CC(CO)NC(=N)c1c(O)nsc1Nc1ccc(-n2cccn2)cc1 (stereo not given)	> 40 µM
CC(C)NC(=N)c1c(O)nsc1Nc1ccc(/N=N/c2ccccc2)cc1	11 µM
CC(C)NC(=N)c1c(O)nsc1Nc1ccc(Oc2ccccc2)cc1	2.3 µM
CC(C)NC(=N)c1c(O)nsc1Nc1ccc(C2CCCCC2)cc1	19 µM
N=C(NCC1CCCCC1)c1c(O)nsc1Nc1ccc(Nc2ccccc2)cc1	1.8 µM
NC(=NCC1CCCCC1)c1c(Nc2ccc(-n3cccn3)cc2)s[nH]c1=O	40 µM
N=C(NCCCCO)c1c(O)nsc1Nc1ccc(Nc2ccccc2)cc1	1.2 µM
N=C(NCC(O)CO)c1c(O)nsc1Nc1ccc(Nc2ccccc2)cc1 (stereo not given)	0.9 µM
N=C(NCCO)c1c(O)nsc1Nc1ccc(Nc2ccccc2)cc1	1 µM
N=C(NCC1CCCCC1)c1c(O)nsc1Nc1ccc(/N=N/c2ccccc2)cc1	11 µM
CC(C)NC(=N)c1c(O)nsc1Nc1ccc(Cc2ccccc2)cc1	8 µM
CCC[C@H]1CC[C@H](c2ccc(Nc3s[nH]c(=O)c3C(N)=NCC(O)CO)cc2)CC1 (stereo not given in full)	17 µM

These reach a lower IC50. Values come first.

IC50	Compound
0.42 µM	CC(C)NC(=N)c1c(O)nsc1Nc1ccc(Nc2ccccc2)cc1
0.22 µM	N=C(NCCO)c1c(O)nsc1Nc1ccc(Nc2ccc(Br)cc2)cc1
0.46 µM	N=C(NCc1cccc2ccccc12)c1c(O)nsc1Nc1ccc(Nc2ccc(Br)cc2)cc1
0.3 µM	N=C(NCC1CCCCC1)c1c(O)nsc1Nc1ccc(Nc2ccc(Br)cc2)cc1
0.14 µM	CC(CO)NC(=N)c1c(O)nsc1Nc1ccc(Nc2ccc(Br)cc2)cc1 (stereo not given)
0.087 µM	CC(C)NC(=N)c1c(O)nsc1Nc1ccc(Nc2ccc(Br)cc2)cc1
0.46 µM	CC(CO)NC(=N)c1c(O)nsc1Nc1ccc(Nc2ccccc2)cc1 (stereo not given)
0.47 µM	N=C(NCC(O)CO)c1c(O)nsc1Nc1ccc(Nc2ccc(Br)cc2)cc1 (stereo not given)
0.31 µM	N=C(NCCCCO)c1c(O)nsc1Nc1ccc(Nc2ccc(Br)cc2)cc1
